From patent publication US20020182260A1, “Anti-inflammatory agents and methods for their preparation and use” (Cellegy Pharmaceuticals, Inc., priority 1998, published 2002)
Where two headings read alike, the source gives them in different places.

Experiments:
Type in all cases: cell-based
[1] = tested on: T-lymphocytes isolated from mouse thymus; assay: T-lymphocyte proliferation assay (Con A, [3H]thymidine incorporation); settings: read-out: IC50, suppression of T-cell proliferation
Procedure: T-lymphocytes were isolated from mouse thymus by standard methods, and suspended in DMEM (see, e.g., Mishell B B and Shiigi S M, eds., “Cell Proliferation” in Selected Methods in Cellular Immunology, V, XXIX, W. H. Freeman Co., San Francisco, Calif. pp. 153-160, 1980 and Dayton et al. (1992) Mol. Pharmacol. 41: 671-676). A total of 5×10^6 cells/ml were incubated overnight at 37° C. in the presence of 3 μg/ml Con A to assess stimulation (positive score, related to 10 U/ml of rat interleukin-2) or suppression (negative score, related to control) of cell proliferation. Test substances were evaluated under these conditions at a pre-defined concentration. After overnight incubation, 2 μCi [^3H]thymidine was added to each well. Cells were harvested after an additional 48 hours incubation, and thymidine incorporation assessed by liquid scintillation counting.
All 40 fractions were subsequently tested in the ConA-induced T-cell proliferation assay, the same assay described in Example 4. Fractions providing greater than or equal to 40% suppression are considered active.

[2] = tested on: B-lymphocytes isolated from mouse spleen; assay: B-lymphocyte proliferation assay (LPS, [3H]thymidine incorporation); settings: B-cell, read-out: IC50, suppression of B-cell proliferation
Procedure: B-lymphocytes were isolated from mouse spleen by standard methods, and suspended in DMEM. A total of 10^6 cells/ml were incubated overnight at 37° C. in the presence of 1 μg/ml lipopolysaccharide (LPS) to assess stimulation (positive score, related to control) or suppression (negative score, related to control) of cell proliferation. Test substances were evaluated under these conditions at a pre-defined concentration. After overnight incubation, 2 μCi [^3H]thymidine was added to each well. Cells were harvested. after an additional 48 hours incubation, and thymidine incorporation assessed by liquid scintillation counting.

[3] = tested on: IL-2 production from human PBMC; assay: inhibition of PHA-stimulated IL-2 production; settings: PHA 20 μg/mL, 48 hours, positive control
Procedure: In this example, the ability of lanolin fractions to inhibit PHA-stimulated IL-2 production from human peripheral blood mononuclear cells (PBMCs) was assayed. IL-2 production from human PBMC was stimulated by phytohemagglutanin (20 μg/mL) based on a procedure described by Konno et al. (Konno S. I. et al. “Inhibition of Cytokine Production from Human Peripheral Blood Leukocytes by Anti-allergic Agents in vitro.” Eur. J. Pharmacol, 264:265-268, 1994) wherein IL-2 levels were measured 48 hours post-stimulation with a commercially available enzyme-immuno assay (EIA) kit and spectrophotometric measurements were performed with a microplate reader (MRX, Dynatech.) The various compositions of the present invention were tested at final concentrations of […], in duplicate. Dexamethasone was used as the positive control in these studies; the IC50 of dexamethasone was 5 nM. The levels of suppression caused by the test compounds are expressed as the percent decrease relative to the vehicle control values.

[4] = tested on: TNF-α production by human PBMCs; assay: inhibition of LPS-stimulated TNF-α production; settings: PBMC, LPS 1 μg/mL, 24 hours, positive control
Procedure: TNF-α production by human PBMCs was stimulated using lipopolysaccharide (1 μg/mL) based on a procedure by Schindler et al. (Schindler R et al. Correlations and Interactions in the Production of Interleukin (IL)-6, IL-1, and Tumor Necrosis Factor (TNF) in Human Blood Mononuclear Cells: IL-6 Suppresses IL-1 and TNF. Blood, 75:40-47, 1990). The levels of TNF-α were measured 24 hours following LPS stimulation with a commercially available enzyme-immuno assay (EIA) kit and spectrophotometric measurements were performed with a microplate reader (MRX, Dynatech). The compositions of the present invention were tested in this study were 1, 10, and 50 μg/mL in duplicate. […] The suppression caused by test compounds is expressed as the percent decrease relative to the vehicle control value.

Cn1cnc([N+](=O)[O-])c1Sc1ncnc2nc[nH]c12 [azathioprine]
IC50 ([1]; positive controls): > 10 µM
IC50 ([2]; compounds known to suppress): > 10 µM

O=P1(N(CCCl)CCCl)NCCCO1 (stereo not drawn) [cyclophosphamide]
IC50 [1]: > 10 µM
IC50 [2]: > 10 µM

C[C@@H]1C[C@H]2[C@@H]3CCC4=CC(=O)C=C[C@]4(C)[C@@]3(F)[C@@H](O)C[C@]2(C)[C@@]1(O)C(=O)CO [dexamethasone]
IC50 [3]: 0.005 µM
IC50 [4]: ~0.016 µM
